Reference: ChEMBL document CHEMBL1126212, “A peptide-acridine conjugate with ribonucleolytic activity” (1992)
Peptide text beside a SMILES is read from it. * marks the point of attachment. Acridine9carbonyl = O=C(c1c2ccccc2nc2ccccc12)*

These compounds were tested on Escherichia coli (assay: Evaluated for the ribosomal RNA cleavage using Gel-permeation analysis as difference in retention time).
Assay type: functional

Structure (SMILES)	Difference in retention time
Cc1ccc2nc3ccccc3c(C=O)c2c1	0.3 min
N[C@@H](Cc1c[nH]cn1)C(=O)N1CCC[C@H]1C(=O)N[C@@H](Cc1c[nH]cn1)C(=O)N[C@@H](CCCCNC(=O)c1c2ccccc2nc2ccccc12)C(=O)O (H-HPHK(Acridine9carbonyl)-OH)	3.4 min
NCCCC[C@H](NC(=O)[C@H](Cc1c[nH]cn1)NC(=O)[C@@H]1CCCN1C(=O)[C@@H](N)Cc1c[nH]cn1)C(N)=O (H-HPHK-NH2)	0.2 min
